Measurements from article PMC6282620, “Structural and biochemical characterization of Plasmodium falciparum Hsp70‐x reveals functional versatility of its C‐terminal EEVN motif” (Proteins, 2018).
Where two headings read alike, the source gives them in different places. Where no end group is shown, it is not given here.

Legend:
PfHsp70‐x [1] = target: T1, PfHsp70‐x (Plasmodium falciparum, UniProt K7NTP5); assay: SPR analysis of association with hHop; type: binding; settings: 5 mM ATP versus no nucleotide / ADP
Experimental: The direct association between PfHsp70‐x and hHop was further explored using SPR analysis. The assay was conducted at 25°C using filter sterilized and degassed PBS‐Tween running buffer [(8 mM Na2HPO4, 1.46 mM KH2PO4, 137 mM NaCl, 3 mM KCl, 0.005% [v/v] Tween 20 and 20 mM EDTA; pH 7.4)] as previously described.22, 24 The recombinant PfHsp70‐x /PfHsp70‐xT (1 μg mL^−1) and BSA (as control) were immobilized onto respective ProteOn GLC sensor chips as ligands. As analyte, the recombinant hHop at varying concentrations (125, 250, 500, 1 000, and 2 000 nM) was passed over the immobilized proteins. The analytes were injected at flow rate of 50 μL min^−1 and association and dissociation occurred in a period of 10 minutes. The assay was then repeated in the presence of 5 mM ADP/ATP. The association rate constant, dissociation rate constant, and equilibrium constant data were processed and analyzed using ProteOn Manager software version 3.1.0.6 involving concatenating the responses of the analyte at variable concentrations.

PfHsp70‐x [2] = target: T1, PfHsp70‐x; assay: Slot blot assay of direct association with hHop; type: binding
Experimental: (§1) Recombinant forms of hHop, control (bovine serum albumin), PfHsp70‐x (positive control) were immobilized onto the nitrocellulose membrane using Bio‐Dot SF apparatus as previously described 22. The proteins were immobilized at final amounts of 2, 4, and 8 μg each respectively per lane. The membrane was blocked with 5% (w/v) fat‐free milk in TBST (50 mM Tris‐HCl pH 7.5, 150 mM NaCl, 0.1% [v/v] Tween 20) and overlaid with either PfHsp70‐x/PfHsp70‐xT (10 μg mL^−1) in the absence and presence of 5 mM ATP/ADP and incubated overnight at 4°C, followed by three washes with TBST for 15 minutes. The nucleotide concentrations were maintained in the subsequent steps of the protocol. Protein was detected by Western blot technique using rabbit raised α‐PfHsp70‐x [1:2000] (Genscript, USA) as primary antibodies and goat raised α‐rabbit IgG secondary HRP‐conjugated antibody [1:4000] (Sigma–Aldrich, USA). Imaging of the protein bands was conducted using the ECL kit as per manufacturer's instructions. The images were captured using ChemiDoc imaging system (Bio‐Rad, USA).

PfHsp70‐xT [3] = target: T2, PfHsp70‐xT (Plasmodium falciparum, UniProt K7NTP5); assay: Slot blot assay of direct association with hHop; type: binding; settings: hHop immobilized 2, 4, 8 μg, overlaid with PfHsp70‐xT 10 μg/mL
Experimental: as §1

PfHsp70‐x [4] = target: T1, PfHsp70‐x; assay: ELISA of direct association with hHop; type: binding; settings: Hop analyte 0.137-300 nM
Experimental: The direct association of hHop with PfHsp70‐x was further confirmed using an enzyme linked immunosorbent assay (ELISA) as previously described27 with minor modifications. Briefly, recombinant PfHsp70‐x/PfHsp70‐xT proteins and control BSA (5 μg/mL) were added to wells overnight in 50 mM NaHCO3, pH 9.3 at 4°C. The wells were washed at least three times with TBST, between each subsequent step. After blocking with 1% BSA in TBST, recombinant PfHop protein (analyte) was added in serial dilutions (0.137–300 nM) in the presence or absence of nucleotides (5 mM ATP/ADP) for 2 hours at 25°C. Then the wells were incubated with α‐PfHop primary antibody for 1 hour. Next, primary antibody was incubated with HRP conjugated goat raised anti‐rabbit IgG for 1 hour. HRP development was assayed with TMB substrate solution (Bio‐Scientific, USA) and monitored at 370 nm using a SpectraMax M3 microplate reader (Molecular Devices, USA) every 5 minutes for 30 minutes.

PfHsp70‐x [5] = target: T1, PfHsp70‐x; assay: SPR peptide substrate binding kinetics; settings: mean ± SD; for Kd: K D, peptide 1.25-20 nM, 25°C, PBS-Tween; for Kd / ka association rate constant: SPR, PfHsp70‐x ligand; for koff: read-out: kd dissociation rate constant, SPR, PfHsp70‐x ligand
Experimental: (§2) Association of PfHsp70‐x/PfHsp70‐xT with synthetic peptides that represent typical Hsp70 substrates26 was investigated using surface plasmon resonance (SPR) analysis as previously described.22, 24 Briefly, PfHsp70‐x and PfHsp70‐xT were immobilized onto respective ProteOn GLC sensor chips as ligands. PfHsp70‐x, PfHsp70‐xT (as ligands) were immobilized at concentrations of 0.5 and 1 μg mL^−1. At these concentrations we achieved 190 response units (RU) for PfHsp70‐x, and 193 RU for PfHsp70‐xT per immobilization surface. The assay was conducted at 25°C. Filter sterilized and degassed PBS‐Tween was used as the running buffer. As analytes, aliquots of peptides, representing typical Hsp70 substrates (NRLLTG, NRNNTG, ALLLMYRR, ANNNMYRR, GFRVVLMYRF, GFRNNNMYRF) were prepared at final concentration of 1.25, 2.50, 5, 10, and 20 nM and were injected at 50 μL min^−1 in each horizontal channel. Association was allowed for 2 minutes, dissociation was monitored for 10 minutes. The assay was repeated in the presence of nucleotides 2 mM ATP/ADP. The final data were determined by substracting the baseline RU (buffer containing ATP/ADP without analyte peptide). The association rate constant, dissociation rate constant and equilibrium constant data were analyzed using ProteOn Manager software version 3.1.0.6. by concatenating the responses of the analyte at variable concentrations.

PfHsp70‐x [6] = target: T1, PfHsp70‐x; assay: SPR nucleotide (ATP) binding assay; settings: SPR steady state, PfHsp70‐x immobilized as ligand, ATP 1.25-20 nM, 25°C, PBS-Tween pH 7.4; mean ± SD of three independent assays; read-out: K D (ATP analyte)
Experimental: (§3) The nucleotide binding assay was conducted at 25°C using a BioRad ProteOn XPR36 surface plasmon resonance (SPR) as previously described.22 The assay buffer was constituted of filter sterilized and degassed PBS‐Tween [([…], 1.46 mM KH2PO4, 137 mM NaCl, 3 mM KCl, 0.005% [v/v] Tween 20 and 20 mM EDTA; pH 7.4)]. PfHsp70‐x (1 μg mL^−1) and its truncated version, PfHsp70‐xT (1 μg mL^−1) were immobilized onto respective ProteOn HTE sensor chips as ligands. At these concentrations, we achieved 190 response units (RU) for PfHsp70‐x and 195 RU for PfHsp70‐xT per immobilization surface. Varying concentrations (1.25 nM, 2.50 nM, 5 nM 10 nM and 20 nM) of the analyte (ATP) were injected at a flow rate of 100 μL min^−1 in each horizontal channel and association and dissociation was allowed to occur and monitored for 10 minutes. Steady state equilibrium constant data was processed and analyzed using ProteOn Manager software version 3.1.0.6.

PfHsp70‐xT [7] = target: T2, PfHsp70‐xT; assay: SPR nucleotide (ATP) binding assay; settings: SPR steady state, PfHsp70‐xT immobilized as ligand, ATP 1.25-20 nM, 25°C, PBS-Tween pH 7.4; mean ± SD of three independent assays; read-out: K D (ATP analyte)
Experimental: as §3

PfHsp70‐xT [8] = target: T2, PfHsp70‐xT; assay: SPR peptide substrate binding kinetics; parameters: ka association rate constant: scale not given here; settings: mean ± SD; for ka association rate constant / Kd: SPR, PfHsp70‐xT ligand; for koff: read-out: kd dissociation rate constant, SPR, PfHsp70‐xT ligand; for Kd: K D, peptide 1.25-20 nM, 25°C, PBS-Tween
Experimental: as §2

T1 sequence (K7NTP5 entry or part of it): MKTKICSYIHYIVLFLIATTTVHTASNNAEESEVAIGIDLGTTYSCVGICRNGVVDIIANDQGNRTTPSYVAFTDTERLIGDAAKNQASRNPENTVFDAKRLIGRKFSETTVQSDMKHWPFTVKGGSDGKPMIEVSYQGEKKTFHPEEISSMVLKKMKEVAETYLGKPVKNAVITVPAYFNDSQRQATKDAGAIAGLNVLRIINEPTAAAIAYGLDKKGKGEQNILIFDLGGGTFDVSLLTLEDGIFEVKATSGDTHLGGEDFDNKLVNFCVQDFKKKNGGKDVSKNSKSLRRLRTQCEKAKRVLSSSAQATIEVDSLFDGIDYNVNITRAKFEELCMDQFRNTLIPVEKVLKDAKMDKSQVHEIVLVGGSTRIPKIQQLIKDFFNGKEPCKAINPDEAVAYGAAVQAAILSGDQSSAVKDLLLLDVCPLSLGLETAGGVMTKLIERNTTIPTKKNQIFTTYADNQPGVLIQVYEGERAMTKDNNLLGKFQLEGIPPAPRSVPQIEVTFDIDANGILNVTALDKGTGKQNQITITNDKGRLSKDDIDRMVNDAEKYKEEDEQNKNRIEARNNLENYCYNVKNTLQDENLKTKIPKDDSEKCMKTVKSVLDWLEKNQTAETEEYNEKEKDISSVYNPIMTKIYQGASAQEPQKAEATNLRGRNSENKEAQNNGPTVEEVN
T2 sequence (K7NTP5 entry or part of it): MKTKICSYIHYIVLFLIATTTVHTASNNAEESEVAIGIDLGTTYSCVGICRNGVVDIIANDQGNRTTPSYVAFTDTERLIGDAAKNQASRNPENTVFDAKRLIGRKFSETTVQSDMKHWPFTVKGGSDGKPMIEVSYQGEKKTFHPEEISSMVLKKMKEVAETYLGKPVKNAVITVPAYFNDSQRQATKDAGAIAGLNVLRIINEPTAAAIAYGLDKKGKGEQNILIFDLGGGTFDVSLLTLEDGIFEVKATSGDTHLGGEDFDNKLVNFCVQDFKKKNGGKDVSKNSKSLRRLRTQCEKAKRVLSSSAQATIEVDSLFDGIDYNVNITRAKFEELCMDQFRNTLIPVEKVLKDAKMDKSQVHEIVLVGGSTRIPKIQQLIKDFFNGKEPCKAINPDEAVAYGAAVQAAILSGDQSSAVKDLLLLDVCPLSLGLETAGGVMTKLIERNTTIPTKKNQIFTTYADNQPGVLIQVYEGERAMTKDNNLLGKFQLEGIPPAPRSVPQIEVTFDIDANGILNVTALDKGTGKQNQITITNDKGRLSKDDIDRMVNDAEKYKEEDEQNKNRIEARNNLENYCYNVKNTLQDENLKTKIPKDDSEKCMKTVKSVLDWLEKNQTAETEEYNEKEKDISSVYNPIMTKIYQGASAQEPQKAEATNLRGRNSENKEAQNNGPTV

Compound: hHop: recombinant N-terminally His-tagged human Hsp70‐Hsp90 organizing protein
- inhibition of the PfHsp70‐x-hHop association by ATP (PfHsp70‐x [1]): at least tenfold
- association with hHop in slot blot (PfHsp70‐x [2]; hHop immobilized 2, 4, 8 μg, overlaid with PfHsp70‐x 10 μg/mL, no nucleotide): occur in a concentration‐dependent manner
- association with hHop in slot blot (PfHsp70‐x [2]; overlaid with PfHsp70‐x, 5 mM ADP): appeared to enhance the association
- association with hHop in slot blot (PfHsp70‐x [2]; overlaid with PfHsp70‐x, 5 mM ATP): abrogated the interaction
- association with hHop in slot blot (PfHsp70‐xT [3]): not observed
- association with hHop in ELISA (PfHsp70‐x [4]; PfHsp70‐x immobilized 5 μg/mL, 2 h, 25°C, no nucleotide): occurs in a concentration dependent form
- association with hHop in ELISA (PfHsp70‐x [4]; PfHsp70‐x immobilized, 5 mM ADP): occurs in a concentration dependent form
- association with hHop in ELISA (PfHsp70‐x [4]; PfHsp70‐x immobilized, 5 mM ATP): inhibited the association

Compound: ANNNMYRR [ANNNMYRR]
- Kd (PfHsp70‐x [5]; no nucleotide (NN)): 2.21 nM

Compound: Nc1ncnc2c1ncn2[C@@H]1O[C@H](COP(=O)(O)OP(=O)(O)OP(=O)(O)O)[C@@H](O)[C@H]1O [ATP]
- Kd (PfHsp70‐x [6]): 110 nM
- Kd (PfHsp70‐xT [7]): 11200 nM

Compound: NRLLTG [NRLLTG, reference compound]
- ka association rate constant (PfHsp70‐x [5]; + ADP): 1.62 (± 0. 22) 1/ Ms
- ka association rate constant (PfHsp70‐x [5]; + ATP): 1.21 (± 0.23) 1/ Ms
- koff (PfHsp70‐x [5]; + ADP): 1.01e-05 s⁻¹
- koff (PfHsp70‐x [5]; + ATP): 1.01e-05 s⁻¹
- koff (PfHsp70‐x [5]; no nucleotide): 9.97e-06 s⁻¹
- ka association rate constant (PfHsp70‐xT [8]; + ADP): 6.0 (± 0.51) 1/ Ms
- ka association rate constant (PfHsp70‐xT [8]; no nucleotide): 3.15 (± 0.31) 1/ Ms
- koff (PfHsp70‐xT [8]; + ADP): 1e-05 s⁻¹
- koff (PfHsp70‐xT [8]; + ATP): 0.000161 s⁻¹
- koff (PfHsp70‐xT [8]; no nucleotide): 8.67e-06 s⁻¹

Compound: GFTVVLMYRF [GFTVVLMYRF, reference compound]
- koff (PfHsp70‐x [5]; + ADP): 1e-05 s⁻¹
- koff (PfHsp70‐x [5]; + ATP): 0.000117 s⁻¹
- koff (PfHsp70‐x [5]; no nucleotide): 1.03e-05 s⁻¹

Compound: NRNNTG [NRNNTG]
- Kd (PfHsp70‐x [5]; 2 mM ADP): 4.31 nM
- Kd (PfHsp70‐x [5]; no nucleotide (NN)): 6.91 nM
- ka association rate constant (PfHsp70‐x [5]; + ADP): 2.55 (± 0.23) 1/ Ms
- ka association rate constant (PfHsp70‐x [5]; + ATP): 7.33 (± 0.22) 1/ Ms
- ka association rate constant (PfHsp70‐x [5]; no nucleotide): 2.43 (± 0.45) 1/ Ms
- koff (PfHsp70‐x [5]; + ADP): 1.03e-07 s⁻¹
- koff (PfHsp70‐x [5]; + ATP): 1.01e-06 s⁻¹
- koff (PfHsp70‐x [5]; no nucleotide): 9.49e-07 s⁻¹
- Kd (PfHsp70‐xT [8]; 2 mM ADP): 1.69 nM
- Kd (PfHsp70‐xT [8]; no nucleotide (NN)): 7.92 nM
- ka association rate constant (PfHsp70‐xT [8]; + ADP): 5.96 (±0.1) 1/ Ms
- ka association rate constant (PfHsp70‐xT [8]; + ATP): 9.37 (±0.17) 1/ Ms
- ka association rate constant (PfHsp70‐xT [8]; no nucleotide): 3.52 (± 0.18) 1/ Ms
- koff (PfHsp70‐xT [8]; + ADP): 1.01e-08 s⁻¹
- koff (PfHsp70‐xT [8]; + ATP): 1.01e-05 s⁻¹
- koff (PfHsp70‐xT [8]; no nucleotide): 2.79e-08 s⁻¹

Compound: GFTNNNMYRF [GFTNNNMYRF]
- Kd (PfHsp70‐x [5]; 2 mM ADP): 6.25 nM
- Kd (PfHsp70‐x [5]; no nucleotide (NN)): 2.4 nM
- Kd (PfHsp70‐xT [8]; 2 mM ADP): 1.4 nM
- Kd (PfHsp70‐xT [8]; no nucleotide (NN)): 2.2 nM
